Data set [1] relates to rats. The settings on record: cited from earlier work.
The conditions of data set [2]: for elimination half-life: metabolite in plasma after iv cocaine, unaffected by donepezil treatment.
A short description of another data set: Cardiovascular response. In kind it is in vivo, human.
For a further data set, the system named is rodent. The settings on record: rodent studies, acute; cited from earlier work.
The subject of data set [3] is rats. The settings on record: cited from earlier work. This is another data set of the same source.
The mark [4] stands for this setting: rat model of ischemic heart disease.

Like-named read-outs stand apart in the source and are kept apart here.

Take `CNC(=O)Oc1ccc2c(c1)[C@]1(C)CCN(C)[C@@H]1N2C` [physostigmine]: the results for the cocaine-induced lethality entry in the data set on rats [1] (high doses of physostigmine) and with rats [1] (low doses of physostigmine) were “increased” and “decreased”, respectively.
Turning to `COC(=O)[C@@H]1[C@H]2CC[C@@H](C[C@@H]1O)N2C` [Ecgonine Methyl Ester, ecgonine methyl ester], the elimination half-life entry in data set [2] is reported as “approximately five hours”.
For the compound `CN1[C@H]2CC[C@@H]1[C@@H](C(=O)O)[C@@H](OC(=O)c1ccccc1)C2` [Benzoylecgonine, benzoylecgonine], in data set [2], the elimination half-life result is on record as “approximately six hours”.
As for `COc1cc2c(cc1OC)C(=O)C(CC1CCN(Cc3ccccc3)CC1)C2` (centres unmarked) [Donepezil, donepezil], the “effect on increases in blood pressure” value in “Cardiovascular response” (oral donepezil 5 mg daily, high-dose cocaine (0.36 mg/kg iv)) is listed as “not affected”. Also, the “effect on diastolic blood pressure and heart rate after cocaine” value in “Cardiovascular response” (oral donepezil 5 mg daily, iv cocaine, data not shown) is given as “unaffected”. In addition, the “effect on peak values of blood pressure and heart rate” value in “Cardiovascular response” (oral donepezil 5 mg daily, iv placebo or cocaine 0.18 and 0.36 mg/kg) was “did not modify peak values”. Further, the “effect on drug-induced elevations of systolic blood pressure” value in “Cardiovascular response” (oral donepezil 5 mg daily, low-dose cocaine (0.18 mg/kg iv), p < 0.001) is given as “attenuated”. Moreover, the cocaine self-administration entry in the data set on rodent was “attenuate cocaine self-administration”. In addition, in the data set with rats [3] (setting [4]), the blood pressure entry is “without affecting blood pressure” and the heart rate entry is “decreased heart rate”. Besides, the “heart failure and survival” value in the data set on rats [3] (rat, following coronary artery ligation) was “prevent heart failure and improve survival”.
With `COC(=O)[C@H]1[C@@H](OC(=O)c2ccccc2)C[C@@H]2CC[C@H]1N2C` [Cocaine, cocaine], the “change in systolic blood pressure” value in “Cardiovascular response” (iv cocaine 0.18 and 0.36 mg/kg, most pronounced over the initial 30 minutes) was “dose-related increases”. Moreover, the Tmax in data set [2] (human, in vivo, iv, 0.36 mg/kg) was 10 min.

The values are drawn from publication PMC4967259 (The American journal on addictions / American Academy of …, 2016).
